In PubChem BioAssay (NCI):
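GI50 marks 50% less growth. Definition used: TGI = concentration required for complete inhibition of growth.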

Legend:
Experiment in all cases: NCI-60 cell line screen, 384-well format
EKVX NSCLC = test system: EKVX NSCLC
NCI/ADR-RES ovarian = test system: NCI/ADR-RES ovarian
ACHN renal = test system: ACHN renal
A549 NSCLC = test system: A549 NSCLC
NCI-H322M lung = test system: NCI-H322M lung
LOX IMVI melanoma = test system: LOX IMVI melanoma
786-0 renal = test system: 786-0 renal
HOP-92 NSCLC = test system: HOP-92 NSCLC
HS 578T breast = test system: HS 578T breast
OVCAR-4 ovarian = test system: OVCAR-4 ovarian
SF-268 CNS = test system: SF-268 CNS
SNB-19 CNS = test system: SNB-19 CNS
SN12C renal = test system: SN12C renal

Row | Compound | GI50 (EKVX NSCLC) [µM] | TGI (EKVX NSCLC) [µM] | GI50 (NCI/ADR-RES ovarian) [µM] | TGI (NCI/ADR-RES ovarian) [µM] | GI50 (ACHN renal) [µM] | TGI (ACHN renal) [µM] | GI50 (A549 NSCLC) [µM] | TGI (A549 NSCLC) [µM] | GI50 (NCI-H322M lung) [µM] | TGI (NCI-H322M lung) [µM] | GI50 (LOX IMVI melanoma) [µM] | TGI (LOX IMVI melanoma) [µM] | GI50 (786-0 renal) [µM] | TGI (786-0 renal) [µM] | GI50 (HOP-92 NSCLC) [µM] | TGI (HOP-92 NSCLC) [µM] | GI50 (HS 578T breast) [µM] | TGI (HS 578T breast) [µM] | GI50 (OVCAR-4 ovarian) [µM] | TGI (OVCAR-4 ovarian) [µM] | further results
1 | C#Cc1cccc(Nc2ncnc3cc(OCCOC)c(OCCOC)cc23)c1 | 1.93 | > 100 | 12.6 | > 100 | 0.329 | > 25.8 | 3.72 | > 100 | 0.193 | 1.66 | 7.97 | > 100 | 6.46 | > 100 | 11.9 | > 96.6 | 3.85 | 45.8 | 32 | > 100 | GI50 (SF-268 CNS): 21.2 µM; TGI (SF-268 CNS): > 72.3 µM; GI50 (SNB-19 CNS): > 100 µM; TGI (SNB-19 CNS): > 100 µM; GI50 (SN12C renal): 3.79 µM; TGI (SN12C renal): > 100 µM
2 | CC(=O)OC[C@H]1O[C@@H](n2ccc(=O)[nH]c2=O)[C@H](OC(C)=O)[C@@H]1OC(C)=O | > 100 | > 100 | > 100 | > 100 | > 100 | > 100 | > 100 | > 100 | > 100 | > 100 | > 100 | > 100 | > 100 | > 100 | > 100 | > 100 | > 100 | > 100 | > 100 | > 100 | GI50 (SF-268 CNS): > 100 µM; TGI (SF-268 CNS): > 100 µM; GI50 (SNB-19 CNS): > 100 µM; TGI (SNB-19 CNS): > 100 µM; GI50 (SN12C renal): > 100 µM; TGI (SN12C renal): > 100 µM
